pIC50: −log10 of the molar value.
Experiments:
[1] = test system: endothelium-denuded rabbit aortic strips; assay: Vessel relaxation bioassay; assay type: cell-based
Procedure: New Zealand White female rabbits weighing 3–4 kg were anesthetized with 30 mg/kg IV sodium pentobarbital. Descending thoracic aortae were isolated and placed immediately in a cold physiologic salt solution (Kreb's) (mM): NaCl, 118; CKl, 4.7; CaCl2, 2.5; MgSO4, 1.2; KH2PO4, 1.2; NaHCO3, 12.5; and D-glucose, 11.0. The vessels were cleaned of adherent connective tissue, and the endothelium removed by gentle rubbing with a cotton tipped applicator inserted into the lumen, after which the vessel was cut into 5 mm rings. The rings were mounted on stirrups and connected to transducers (model FT03C Grass Instruments, Quincy, Mass.) by which changes in isometric tension were recorded.
Samples were added to a standard bioassay in which vessel rings were suspended in glass chambers containing seven mil of oxygenated Kreb's buffer, in a standard bioassay (Cook et al., Am. J. Physiol. 28:H804 (1989), herein incorporated by reference). Sustained contractions, to 2 gm tension, were induced with 1 μM epinephrine, after which the effects of t-PA and S—NO-t-PA were tested. In certain experiments the guanylate cyclase inhibitor, methylene blue, was preincubated with vessel rings for 15 minutes prior to initiation of contractions.
The vasodilatory actions of S-nitroso-BSA were examined in a standard bioassay containing endothelium-denuded rabbit aortic strips in Kreb's buffer, pH 7.5, at 37°, as described in Example 6.
In vessel experiments, relaxations to S—NO-BSA are expressed as-percent of tone induced by 1.0 μM norepinephrine.

gel-filtered platelets [2] = assay: Platelet aggregation (nephelometric aggregometry); assay type: cell-based, human
Procedure: Venous blood, anticoagulated with 1-mM trisodium citrate, was obtained from volunteers who had not consumed acetylsalicylic acid for at least ten days. Platelet-rich plasma (PRP) was prepared by centrifugation at 150 g for ten minutes at 25° C. Platelet counts were determined with a Coulter counter (model ZM; Coulter Electronics, Hialeah, Fla.).
Platelets were gel-filtered on a 4× 10 cm column of Sepharose 2B in Tyrode's Hepes buffer as described previously (Hawiger et al., Nature 2831:195–198 (1980), herein incorporated by reference). Platelets were typically suspended at a concentration of 1.5×10^8/ml and were used within 30 minutes of preparation. Platelet aggregation was monitored using a standard nephelometric technique (Born, et al., J. Physiol. 168:178–195 (1963), herein incorporated by reference), in which 0.3-ml aliquots of gel-filtered platelets were incubated at 37° C. and stirred at 1000 rpm in a PAP-4 aggregometer (Biodata, Hatboro, Pa.). Gel-filtered platelets were preincubated with t-PA or S—NO-t-PA for up to 45 minutes and aggregations induced with 5 μM ADP or 0.025 U/ml thrombin.
Aggregations were quantified by measuring the maximal rate or extent of light transmittance and expressed as a normalized value relative to control aggregations.
The effect of S-nitroso-BSA on platelet aggregation was studied, using a gel-filtered platelet preparation, as previously described (Hawiger et al., Nature 2831:195 (1980)) and suspended at 150,000 platelets/ul in HEPES buffer, pH 7.35. S—NO-BSA was incubated with platelets for ten minutes at 37° C. in a PAP-4 aggregometer (BioData, Hatboro, Pa.), after which aggregations were induced with 5 μM ADP. Aggregations were quantified by measuring the extent of change of light transmittance and expressed as a normalized value relative to control aggregations.

hemoglobin = hemoglobin (Bos taurus, UniProt P01966+P02070); settings: for reaction at the redox metal (iron-binding site) of hemoglobin: UV spectrum, SNOAC over 15 minutes
gel-filtered platelets [3] = assay: Platelet aggregation (nephelometric aggregometry); assay type: cell-based, human; remark: listed apart in the source
[4] = Canine model of subtotal coronary artery occlusion; assay type: in vivo, dog
Source text: (§1) These extremely potent, but reversible anti-platelet properties in vivo are unmatched by classic nitrates. […] As shown in FIGS. 12–14, the constellation of anti-platelet effect, long duration of action, and increased coronary blood flow, is unmatched by other nitroso-compounds. Thus, S-nitroso-proteins have very unique hemodynamic and bioactive profiles.

[5] = test system: RFL-6 lung fibroblasts containing a soluble guanylate cyclase; assay: Cyclic GMP in cultured RFL-6 lung fibroblasts; assay type: cell-based
Procedure: Consonant with the mechanism of other nitro(so)-vasodilators (Ignarro, L. J. Circ. Res. 65:1 (1989)), relaxations were abolished by methylene blue, an inhibitor of guanylate cyclase (FIG. 11a). This mechanism was confirmed by showing that S-nitroso-BSA (18 μM) induces 3.5-fold increases (n=2) in cyclic GMP over basal levels relative to BSA alone in cultured RFL-6 lung fibroblasts containing a soluble guanylate cyclase exquisitely sensitive to NO (Forstermann et al., Mol. Pharmacol. 38:7 (1990)). Stimulation of guanylate cyclase by S-nitroso-BSA was attenuated by methylene blue.

trachea rings = assay: Airway smooth muscle relaxation, trachea rings; assay type: cell-based, guinea pig
Source text: (§2) Male Hartley guinea pigs (500–600 g) were anesthetized by inhalation of enflurane to achieve a surgical plane of anesthesia. The trachea were excised and placed in Kreb's-Hanseleit buffer (mM); NaCl 118, KCl 5.4, NaH2PO4 1.01, glucose 11.1, NaHCO3 25.0, MgSO4 0.69, CaCl 2.32, pH 7.4. The airways were then dissected free from surrounding fat and connective tissue and cut into rings 2–4 mm in diameter. The trachea rings were placed in sterile Medium 199 containing 1% antibiotic/antimycotic mixture in an atmosphere of 5% CO2, […], 55% N2 and kept for up to 48 hours in tissue culture. The experiments were also performed on human airways isolated by the same method.
(§3) Trachea rings were mounted on stirrups and connected to transducers (model FTO3C Grass), by which changes in isometric tension were measured. Rings were then suspended in 10 cc of oxygenated (95% O2, 5% CO2) buffer. Airway rings were equilibrated for 60 minutes under a load of 1 gm and then primed twice by exposure to 100 μM methacholine. The rings were contracted with various agonists at concentrations determined to generate 50% (±16% S.D.) of maximum tone, after which the effect of S—NO-BSA was assessed. In selected experiments, relaxation responses were determined in the presence of hemoglobin, or after rings had been preexposed to methylene blue for 30 minutes.

[6] = Infusion into anesthetized dogs (blood pressure, coronary flow); assay type: in vivo, dog
Source text: as §1

[7] = Stability of S-nitroso-albumin in the presence of oxygen and redox metals; assay type: physicochemical; settings: Cu^+, Fe^2+, or Cu^2+ (50 μM) or defuroxamine or EDTA (10 μM)
Procedure: The stability of S-nitroso-albumin in the presence of oxygen and redox metals was assessed.
In addition, S-nitroso-protein stability was assessed in the presence of various redox metals or chelating agents.

human airways [8] = assay: Bronchodilatory effect in human airways contracted with methacholine; assay type: cell-based
Source text: as §2, §3
(§4) The effect of guanylate cyclase inhibitors upon S-nitroso-protein-induced airway relaxation and cGMP increase was assessed, using the previously described bioassay and cyclic nucleotide assay procedures. The bronchodilatory effect of S-nitroso-albumin was examined in human airways (5–12 mm outer diameter).

human airways [9] = assay: Airway cGMP levels; assay type: cell-based; settings: 100 μM
Procedure: as §4

[10] = Hemoglobin-oxygen association curve; settings: S-nitrosylation of hemoglobin
Source text: Thus, the reaction between S-nitrosothiols and hemoglobin not only eliminates the inhibition of oxygen binding which occurs from the reaction with uncharged NO and generation of methemoglobin, but it actually increases oxygen binding.

[11] = clinically used comparator; cited from earlier work
[12] = acidified NaNO2, NO gas or EDRF from endothelial cells

hemoglobin, sequence (P01966 2-142): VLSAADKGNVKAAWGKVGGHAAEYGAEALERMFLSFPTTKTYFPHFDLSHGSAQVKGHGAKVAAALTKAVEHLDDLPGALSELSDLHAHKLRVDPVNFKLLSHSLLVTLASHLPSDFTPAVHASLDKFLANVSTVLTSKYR
hemoglobin, sequence (P02070 whole entry): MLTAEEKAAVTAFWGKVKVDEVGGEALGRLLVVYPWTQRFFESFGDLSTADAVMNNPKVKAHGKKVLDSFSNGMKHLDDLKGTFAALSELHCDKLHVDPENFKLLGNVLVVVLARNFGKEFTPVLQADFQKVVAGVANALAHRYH

[N]=O [NO, nitric oxide, reference compound]
% Relaxation ([1]; 150 nM, contraction with 1 μM epinephrine, mean ±S.D., n=4): 1.0 ± 1.7% | normalized extent of aggregation (gel-filtered platelets [2]; NO generated from NaNO2 (150 nM), n=5): 0.98±0.11 | effect on the extent of platelet aggregation (gel-filtered platelets [2]; NOx generated from NaNO2): no significant effect | reaction at the redox metal (iron-binding site) of hemoglobin (hemoglobin): reacted instantaneously

O=N[O-].[Na+] [NaNO2, Sodium nitrite, reference compound]
effect on platelet aggregation (sentence negated: neither ... had) (gel-filtered platelets [3]; concentrations up to 15 μM): any significant effect | effect on vessel tone (sentence negated: neither ... had) ([1]; concentrations up to 15 μM): any significant effect

CC(=O)N[C@@H](CSN=O)C(=O)O [SNOAC, S-nitroso-N-acetylcysteine]
reaction at the redox metal (iron-binding site) of hemoglobin (hemoglobin): no reaction

NO-BSA: BSA loaded with NO at a ratio of 20:1 in 0.5 N HCl (Example 14)
vessel relaxation with increasing concentrations of NO loaded ([1]; BSA loaded with NO as in Example 14): increase in vessel relaxation

S-nitroso-BSA: S-nitrosylated bovine serum albumin
bleeding times [4]: significantly prolonged | platelet-dependent cyclic thrombus formation [4]: inhibited | increases in cyclic GMP over basal levels relative to BSA alone ([5]; 18 μM, n=2): 3.5 fold | stimulation of guanylate cyclase in presence of methylene blue ([5]; methylene blue): attenuated | platelet inhibitory effect in platelet-rich plasma and whole blood (gel-filtered platelets [3]; 1.4 μM, impedance aggregometry for whole blood): confirmed | vasorelaxant potency by method of synthesis [1, 12]: essentially equipotent | character of relaxation response ([1]; compared with EDRF, NO, low molecular weight S-nitrosothiols): less rapid, but much more persistent, relaxation response | platelet inhibitory potency by method of synthesis (gel-filtered platelets [2]; [12]): essentially equipotent | relaxation of airway smooth muscle (trachea rings; 0.01 μM): 50% | relaxation of airway smooth muscle (trachea rings; 10 μM): over 75% | blood pressure [6]: prolonged decreases in blood pressure | coronary flow [6]: increased coronary flow

S-nitroso-albumin: S-nitrosylated albumin used in Examples 17 and 18; likely the same as S-nitroso-BSA
decomposition in presence of redox metals or chelating agents [7]: resistant to decomposition | effect of hemoglobin on airway relaxation (human airways [8]; hemoglobin (100 μM)): little effect | airway relaxation in presence of methylene blue or LY83583 (human airways [8]; methylene blue (10^−4) or LY83583 (5×10^−5)): not significantly inhibited | pIC50 (human airways [8]; rings contracted with methacholine (7 μM), read-out: IC50 of airway relaxation): 4.66 | airway cGMP levels (human airways [9]): increases over control

S-nitroso-hemoglobin: derived from the nitrosylation of hemoglobin
hemoglobin-oxygen association curve [10]: leftward shift | formation of methemoglobin (hemoglobin): does not result in the formation of methemoglobin

nitroprusside
effect on coronary flow [11]: deleterious effects on coronary flow

From patent publication US7033999B2, “Nitrosated and nitrosylated heme proteins” (Brigham and Women's Hospital, priority 1991, dated 2006)
